In PMC7984254 (Biochimica et biophysica acta. Molecular cell research, 2020):

How the values were obtained:
[1] = tested on: hippocampal CA1 pyramidal neurons; experiment: Ex vivo patch-clamp of hippocampal CA1 pyramidal neurons in brain slices; format: cell-based, mice; conditions: 20 μM
Nav1.6 = experiment: Whole-cell patch-clamp electrophysiology in HEK-Nav1.6 cells; format: cell-based, human
FGF14^Y158A:Nav1.6 = FGF14^Y158A:Nav1.6 (Homo sapiens, UniProt Q92915+Q9UQD0, Y153A); experiment: LCA dose response, FGF14^Y158A:Nav1.6 mutant complex
[2] = molecular target: FGF14:Nav1.6 complex (CLuc-FGF14 and CD4-Nav1.6 C-tail-NLuc) (Homo sapiens, UniProt Q92915+Q9UQD0); experiment: cell-based; conditions: for activity at 30 µM: HEK293, 2 h, read-out: % luminescence, FGF14:Nav1.6 complex (HTS); for initial dose/concentration dependency against FGF14:Nav1.6: screening library compound, Suppl. Fig. 3
[3] = molecular target: FGF14:FGF14 dimer (CLuc-FGF14 and FGF14-NLuc) (Homo sapiens, UniProt Q92915); experiment: LCA counter-screen and dose response, FGF14:FGF14 homodimer; format: cell-based; conditions: plateau; normalized to 0.3% DMSO
[4] = tested on: double stable HEK293 cells; experiment: CellTiter-Blue; format: cell-based; conditions: 30 μM; fluorescence read after 16 h; relative to DMSO controls

Cc1cnc(Nc2ccc(OCCN3CCCC3)cc2)nc1Nc1cccc(S(=O)(=O)NC(C)(C)C)c1 [Fedratinib]
resting membrane potential, current threshold and voltage threshold for action potential firing ([1]; Fgf14^+/+ mice): no significant changes | maximum number of evoked action potentials (AP) ([1]; Fgf14^+/+ mice, 1 hr slice incubation): 11.3 ± 1.4 | evoked action potentials ([1]; Fgf14^−/− mice, 1 hr slice incubation): 11.8 ± 2.7 | V½ of activation (Nav1.6; HEK-Nav1.6 FGF14-GFP, 20 μM): −30.56 ± 1.9 mV | V½ of steady-state inactivation (Nav1.6; HEK-Nav1.6 FGF14-GFP, 20 μM): −60.8 ± 1.2 mV | decay time constant (τ) of INa (Nav1.6; HEK-Nav1.6 FGF14-GFP, 20 μM): 1.4 ± 0.06 ms | peak transient Na+ current (INa) density (Nav1.6; HEK-Nav1.6 FGF14-GFP, 20 μM): −81.27 ± 11.3 pA/pF | long-term inactivation (LTI), normalized INa at pulse 3 (Nav1.6; HEK-Nav1.6 FGF14-GFP, 30 min incubation, pulse 3): 0.89 ± 0.02% | effect on long-term inactivation (LTI) (Nav1.6; HEK-Nav1.6 FGF14^Y158A): no effect | peak transient Na+ current (INa) density (Nav1.6; HEK-Nav1.6 FGF14^Y158A-GFP, 20 μM): −26.65 ± 3.5 pA/pF | V½ of activation (Nav1.6; HEK-Nav1.6 FGF14^Y158A, 20 μM): −22.69 ± 1.2 mV | V½ of steady-state inactivation, change compared to DMSO (Nav1.6; HEK-Nav1.6 FGF14^Y158A, 20 μM): no significant change | decay time constant (τ) of INa (Nav1.6; HEK-Nav1.6 FGF14^Y158A, 20 μM): 1.8 ± 0.11 ms | peak transient Na+ current (INa) density (Nav1.6; HEK-Nav1.6 GFP (channel alone), 20 μM): −59.43 ± 6.0 pA/pF | V½ of activation (Nav1.6; HEK-Nav1.6 GFP, 20 μM): −25.7 ± 1.7 mV | V½ of steady-state inactivation (Nav1.6; HEK-Nav1.6 GFP, 20 μM): −61.7 ± 1.0 mV | decay time constant (τ) of INa (Nav1.6; HEK-Nav1.6 GFP, 20 μM): 1.3 ± 0.07 ms

C1=C/COCc2cc(ccc2OCCN2CCCC2)Nc2nccc(n2)-c2cccc(c2)COC/1 [Pacritinib]
effect on FGF14^Y158A:Nav1.6 complex compared with FGF14^WT (FGF14^Y158A:Nav1.6): abolished

O=C(Nc1ccc([N+](=O)[O-])cc1Cl)c1cc(Cl)ccc1O [Niclosamide]
activity at 30 µM [2]: 18.7%

NC(=O)c1cnc(N[C@@H]2CCCC[C@@H]2N)nc1Nc1cccc(-n2nccn2)c1 [PRT062607]
initial dose/concentration dependency against FGF14:Nav1.6 [2]: promising concentration dependency

Cc1ccc2c(=O)c3ccccc3n(CCCN)c2c1C.O=C(O)C(=O)O [ER 27319]
initial dose/concentration dependency against FGF14:Nav1.6 [2]: less ideal

Cc1cnc(Nc2ccc(N3CCN(C)CC3)cc2)nc1Nc1cccc(S(=O)(=O)NC(C)(C)C)c1 [TG101209]
FGF14^Y158A:Nav1.6 IMin/EMax (FGF14^Y158A:Nav1.6; plateau, normalized to 0.3% DMSO): 78.0 percent luminescence | FGF14:FGF14^WT IMin/EMax [3]: 150.6 percent luminescence

C[C@H]1[C@H](C)CC[C@]2(C(=O)O)CC[C@]3(C)C(=CC[C@@H]4[C@@]5(C)CC[C@H](O)C(C)(C)[C@@H]5CC[C@]43C)[C@H]12 [Ursolic Acid]
activity at 30 µM [2]: 104%

O=[N+]([O-])c1ccc2c(c1)S(=O)(=O)C=C2 [Stattic]
% fluorescence from the CTB assay (cell viability) [4]: 57.2%

N#CCNC(=O)c1ccc(-c2ccnc(Nc3ccc(N4CCOCC4)cc3)n2)cc1 [Momelotinib]
effect on FGF14^Y158A:Nav1.6 complex compared with FGF14^WT (FGF14^Y158A:Nav1.6): abolished

CC(C)(O)/C=C/C(=O)[C@](C)(O)[C@H]1[C@H](O)C[C@@]2(C)[C@@H]3CC=C4[C@@H](C=C(O)C(=O)C4(C)C)[C@]3(C)C(=O)C[C@]12C [Cucurbitacin I]
activity at 30 µM [2]: 5.6% | initial dose/concentration dependency against FGF14:Nav1.6 [2]: highly potent but undesirable curve shape
